{"source": "patent US20070148110A1", "about": "“Aqueous-alcoholic depigmenting gels comprising mequinol and adapalene” (GALDERMA RESEARCH & DEVELOPMENT, priority 2004, published 2007)", "tested_on": "skin of the tail of the SKH2 mouse", "test": "Depigmenting activity on the skin of the tail of the SKH2 mouse", "assay_type": "in vivo", "design": "key to depigmentation score: 0: natural pigmentation; −1: slight depigmentation; −2: moderate depigmentation; −3: marked depigmentation; −4: total depigmentation", "conditions": "adapalene 0.1%; for depigmentation score: 4 weeks topical; for depigmenting effect: topical, after 4 weeks, mequinol 2%", "description": "The purpose of the present study is to evaluate the depigmenting activity of a composition comprising either (i) 2% of mequinol, (ii) 0.1% of adapalene or (iii) the combination of both of them (composition according to the invention) on the skin of the tail of the SKH2 mouse after 4 weeks of topical application.\nThe two formulations gel and gel-cream are also compared. The two formulations (20 μl) are applied topically on the tails of SKH2 mice separated into two groups (female mice about 9 weeks old) at the rate of one application per day for 5 days over a period of 4 weeks.\nEvaluation is based on various clinical observations: once a week, the pigmentation is evaluated as a score on a scale from 0 to 4. The basis of scoring is as follows: • 0: natural pigmentation Depigmentation scale: scores −1 to −4 • −1: slight depigmentation • −2: moderate depigmentation • −3: marked depigmentation • −4: total depigmentation", "data": [{"smiles": "COc1ccc(-c2ccc3cc(C(=O)O)ccc3c2)cc1C12CC3CC(CC(C3)C1)C2", "note": "[Adapalene, 6-[3-(1-adamantyl)-4-methoxyphenyl]-2-naphthoic acid]", "values": [{"measurement": "depigmentation score", "setting": "gel formulation", "value": 0}, {"measurement": "depigmentation score", "setting": "gel-cream formulation", "value": 0}, {"measurement": "depigmenting effect", "value": "does not have a depigmenting effect"}]}, {"smiles": "COc1ccc(O)cc1", "note": "[Mequinol, 4-hydroxyanisole]", "values": [{"measurement": "depigmenting effect", "value": "significant depigmenting effect"}]}]}
